According to PubChem BioAssay (NCI):
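Compound exposure: 48 hours, 5 concentrations, 96-well plates. GI50 = concentration required for 50% inhibition of growth. Definition used: TGI = concentration required for complete inhibition of growth.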

Key:
Test in all cases: DTP human tumour cell line panel, 48 h
SR leukemia = system: SR leukemia
MDA-MB-435 = system: MDA-MB-435
CCRF-CEM leukemia = system: CCRF-CEM leukemia
EKVX NSCLC = system: EKVX NSCLC
OVCAR-3 ovarian = system: OVCAR-3 ovarian
NCI-H226 lung = system: NCI-H226 lung
CAKI-1 renal = system: CAKI-1 renal
SF-295 CNS = system: SF-295 CNS
HT29 colon = system: HT29 colon
MCF7 breast = system: MCF7 breast
SK-MEL-28 melanoma = system: SK-MEL-28 melanoma
UACC-257 melanoma = system: UACC-257 melanoma
NCI-H522 lung = system: NCI-H522 lung
HS 578T breast = system: HS 578T breast
ACHN renal = system: ACHN renal
A549 NSCLC = system: A549 NSCLC
M14 melanoma = system: M14 melanoma
DU-145 prostate = system: DU-145 prostate
OVCAR-5 ovarian = system: OVCAR-5 ovarian
PC-3 prostate = system: PC-3 prostate
SK-OV-3 ovarian = system: SK-OV-3 ovarian
A498 renal = system: A498 renal
KM12 colon = system: KM12 colon
SF-539 CNS = system: SF-539 CNS
COLO 205 colon = system: COLO 205 colon
T-47D breast = system: T-47D breast
TK-10 renal = system: TK-10 renal
IGROV1 ovarian = system: IGROV1 ovarian
NCI-H23 lung = system: NCI-H23 lung
OVCAR-8 ovarian = system: OVCAR-8 ovarian
SK-MEL-2 melanoma = system: SK-MEL-2 melanoma
UO-31 renal = system: UO-31 renal
NCI/ADR-RES ovarian = system: NCI/ADR-RES ovarian
BT-549 breast = system: BT-549 breast
HCT-15 colon = system: HCT-15 colon
UACC-62 melanoma = system: UACC-62 melanoma
786-0 renal = system: 786-0 renal
SK-MEL-5 melanoma = system: SK-MEL-5 melanoma
HOP-92 NSCLC = system: HOP-92 NSCLC
SW-620 colon = system: SW-620 colon
SN12C renal = system: SN12C renal
MOLT-4 leukemia = system: MOLT-4 leukemia
HL-60(TB) leukemia = system: HL-60(TB) leukemia
HCC-2998 colon = system: HCC-2998 colon
HCT-116 colon = system: HCT-116 colon
RPMI-8226 leukemia = system: RPMI-8226 leukemia
RXF 393 renal = system: RXF 393 renal
OVCAR-4 ovarian = system: OVCAR-4 ovarian
SNB-75 CNS = system: SNB-75 CNS
K-562 leukemia = system: K-562 leukemia
SF-268 CNS = system: SF-268 CNS
SNB-19 CNS = system: SNB-19 CNS
U251 CNS = system: U251 CNS
NCI-H460 lung = system: NCI-H460 lung
HOP-62 NSCLC = system: HOP-62 NSCLC
MALME-3M melanoma = system: MALME-3M melanoma

## CCCCCCCCCCCCCCCC[N+](C)(C)Cc1ccc(F)cc1
SR leukemia
  TGI: 4.23 µM
MDA-MB-435
  TGI: 3.99 µM
CCRF-CEM leukemia
  TGI: 3.28 µM
EKVX NSCLC
  TGI: 6.01 µM
OVCAR-3 ovarian
  TGI: 5.49 µM
NCI-H226 lung
  TGI: 9.58 µM
CAKI-1 renal
  TGI: 15.6 µM
SF-295 CNS
  TGI: 7.69 µM
HT29 colon
  TGI: 5.78 µM
MCF7 breast
  TGI: 3.67 µM
SK-MEL-28 melanoma
  TGI: 15.1 µM
UACC-257 melanoma
  TGI: 4.92 µM
NCI-H522 lung
  TGI: 2.03 µM
HS 578T breast
  TGI: 3.44 µM
ACHN renal
  TGI: 10.1 µM
A549 NSCLC
  TGI: 11.3 µM
M14 melanoma
  TGI: 3.05 µM
DU-145 prostate
  TGI: 20.8 µM
OVCAR-5 ovarian
  TGI: 3.79 µM
PC-3 prostate
  TGI: 2.51 µM
SK-OV-3 ovarian
  TGI: 6.68 µM
A498 renal
  TGI: 88.7 µM
KM12 colon
  TGI: 2.33 µM
SF-539 CNS
  TGI: 2.31 µM
COLO 205 colon
  TGI: 2.87 µM
T-47D breast
  TGI: 25.9 µM
TK-10 renal
  TGI: 4.8 µM
IGROV1 ovarian
  TGI: 1.57 µM
NCI-H23 lung
  TGI: 14.2 µM
OVCAR-8 ovarian
  TGI: 3.11 µM
SK-MEL-2 melanoma
  TGI: 2.82 µM
UO-31 renal
  TGI: 31.1 µM
NCI/ADR-RES ovarian
  TGI: 57.1 µM
BT-549 breast
  TGI: 8.87 µM
HCT-15 colon
  TGI: 34.9 µM
UACC-62 melanoma
  TGI: 4.45 µM

## N=C(N)c1ccc(-c2ccc(-c3cccs3)o2)cc1
SR leukemia
  GI50: 2.99 µM
  TGI: 8.54 µM
MDA-MB-435
  GI50: 1.76 µM
  TGI: 3.39 µM
CCRF-CEM leukemia
  GI50: 2.33 µM
  TGI: 5.9 µM
786-0 renal
  GI50: 1.89 µM
  TGI: 3.44 µM
OVCAR-3 ovarian
  GI50: 2.25 µM
  TGI: 4.92 µM
SK-MEL-5 melanoma
  GI50: 1.65 µM
  TGI: 3.02 µM
HOP-92 NSCLC
  GI50: 1.4 µM
  TGI: 3.1 µM
NCI-H226 lung
  GI50: 2.07 µM
  TGI: 5.13 µM
CAKI-1 renal
  GI50: 2.14 µM
  TGI: 5.2 µM
HT29 colon
  GI50: 1.89 µM
  TGI: 3.7 µM
MCF7 breast
  GI50: 1.69 µM
  TGI: 3.29 µM
SK-MEL-28 melanoma
  GI50: 1.71 µM
  TGI: 3.11 µM
UACC-257 melanoma
  GI50: 1.98 µM
  TGI: 3.63 µM
NCI-H522 lung
  GI50: 2.01 µM
  TGI: 3.89 µM
HS 578T breast
  GI50: 2.14 µM
  TGI: 5.25 µM
ACHN renal
  GI50: 1.86 µM
  TGI: 3.51 µM
SW-620 colon
  GI50: 1.77 µM
  TGI: 3.37 µM
M14 melanoma
  GI50: 1.9 µM
  TGI: 3.39 µM
DU-145 prostate
  GI50: 2.91 µM
  TGI: 7.31 µM
OVCAR-5 ovarian
  GI50: 2.02 µM
  TGI: 6.2 µM
SN12C renal
  GI50: 1.97 µM
  TGI: 4.38 µM
PC-3 prostate
  GI50: 2.13 µM
  TGI: 5.56 µM
MOLT-4 leukemia
  GI50: 2.34 µM
  TGI: 4.89 µM
SK-OV-3 ovarian
  GI50: 2.4 µM
  TGI: 5.77 µM
HL-60(TB) leukemia
  GI50: 1.82 µM
  TGI: 4.11 µM
A498 renal
  GI50: 1.8 µM
  TGI: 3.86 µM
SF-539 CNS
  GI50: 1.68 µM
  TGI: 3.14 µM
COLO 205 colon
  GI50: 1.91 µM
  TGI: 3.49 µM
HCC-2998 colon
  GI50: 1.87 µM
  TGI: 3.41 µM
T-47D breast
  GI50: 2.17 µM
  TGI: 4.88 µM
TK-10 renal
  GI50: 1.95 µM
  TGI: 3.44 µM
HCT-116 colon
  GI50: 1.83 µM
  TGI: 3.23 µM
RPMI-8226 leukemia
  GI50: 2.12 µM
  TGI: 4.98 µM
RXF 393 renal
  GI50: 1.69 µM
  TGI: 3.46 µM
IGROV1 ovarian
  GI50: 1.92 µM
  TGI: 3.83 µM
NCI-H23 lung
  GI50: 3.63 µM
  TGI: 13.2 µM
OVCAR-4 ovarian
  GI50: 2.35 µM
  TGI: 5.72 µM
SNB-75 CNS
  GI50: 1.71 µM
  TGI: 3.5 µM
SK-MEL-2 melanoma
  GI50: 2.19 µM
  TGI: 4.04 µM
UO-31 renal
  GI50: 1.9 µM
  TGI: 3.74 µM
K-562 leukemia
  GI50: 2.27 µM
  TGI: 5.72 µM
SF-268 CNS
  GI50: 2.19 µM
  TGI: 5.17 µM
SNB-19 CNS
  GI50: 2.43 µM
  TGI: 7.81 µM
NCI/ADR-RES ovarian
  GI50: 2.88 µM
  TGI: 7.63 µM
U251 CNS
  GI50: 1.76 µM
  TGI: 3.37 µM
NCI-H460 lung
  GI50: 1.79 µM
  TGI: 3.41 µM
BT-549 breast
  GI50: 2.05 µM
  TGI: 4.02 µM
HCT-15 colon
  GI50: 1.86 µM
  TGI: 3.8 µM
HOP-62 NSCLC
  GI50: 2.04 µM
  TGI: 4.32 µM
UACC-62 melanoma
  GI50: 1.75 µM
  TGI: 3.35 µM
MALME-3M melanoma
  GI50: 1.91 µM
  TGI: 3.42 µM
